# Assay results reported in patent US6194437A (Warner-Lambert Company, priority 1999, dated 2001).
# Experiments:
# [1] = target: T1, cloned human NMB-preferring receptor (BB1) (Homo sapiens, UniProt P28336); experiment: Receptor binding assay, cloned human NMB-preferring receptor (BB1), [125I][Tyr4]bombesin displacement; conditions: CHO-K1 cell membranes, 60 minutes incubation
# T1 construct: expressed in transfected cells
# Protocol: (§1) For binding experiments, cells were harvested by trypsinization, and stored frozen at -70° C. in Ham's F12 culture medium containing 5% DMSO until required. On the day of use, cells were thawed rapidly, diluted with an excess of culture medium, and centrifuged for 5 minutes at 2000 g. Cells were resuspended in 50 mM Tris-HCl assay buffer (pH 7.4 at 21° C., containing 0.02% BSA, 40 μg/ml bacitracin, 2 μg/mL chymostatin, 4 μg/mL leupeptin, and 2 μM phosphoramidon), counted, and polytronned (setting 5, 10 sec) before centrifuging for 10 minutes at 28,000 g. The final pellet was resuspended in assay buffer to a final cell concentration of 1.5×10^5 /mL. […] Radioactivity bound was determined using a gamma counter.
# [2] = target: T2, cloned human NMB-preferring receptors expressed in CHO cells (Homo sapiens, UniProt P28336); experiment: Measurement of extracellular acidification (CYTOSENSOR) in CHO-NMB cells; format: cell-based; conditions: NMB-preferring receptor (BB1), antagonist 30 minutes prior to agonist, 37° C.
# T2 construct: functional calcium (Fura-2) and Cytosensor acidification assays
# T2 sequence (P28336 whole entry): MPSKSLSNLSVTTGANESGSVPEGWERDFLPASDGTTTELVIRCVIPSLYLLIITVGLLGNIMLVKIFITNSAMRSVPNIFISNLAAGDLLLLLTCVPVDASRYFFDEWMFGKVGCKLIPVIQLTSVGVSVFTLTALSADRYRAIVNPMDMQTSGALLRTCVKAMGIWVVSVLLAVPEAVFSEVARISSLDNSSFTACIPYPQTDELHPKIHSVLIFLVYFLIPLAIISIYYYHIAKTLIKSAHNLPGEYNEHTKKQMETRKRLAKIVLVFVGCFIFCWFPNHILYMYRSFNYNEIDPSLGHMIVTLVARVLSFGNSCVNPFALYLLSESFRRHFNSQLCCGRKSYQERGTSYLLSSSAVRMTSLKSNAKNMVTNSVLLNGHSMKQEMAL
# Description: (§2) The compounds of the invention have been tested in in vitro functional assays using cloned human NMB-preferring receptors expressed in CHO cells.
# (§3) Protocols for functional assays:
# 2. Measurement of extracellular acidification (CYTOSENSOR)
# This acidification rate is detected as a change in potential across a silicon light addressable sensor, during periods of media cessation (McConnell, et al., 1992).
# CHO-NMB Cells seeded on polycarbonate microporous capsule cups were placed insensor chambers at 37° C. inside the microphysiometer, and maintained by a flow of nonbuffering Ham's F12 nutrient media (growth media without NaHCO3, pH 7.3-7.4) at approximately 120 μL/min. The flow was halted for 22 seconds at the end of each 2 minute repeated cycle, and the rate of acidification (μ volts/sec) measured for 15 seconds during that period.
# Agonists were introduced sequentially every 28 to 30 minutes to the perfusing media, 20 seconds before flow-off periods, and removed after two rate measurements via the automatic valve-switch.
# The effects of various antagonists were determined after continuous perfusion 30 minutes prior to, and throughout the application of agonists. All agents were applied at the working pH of the media.
# [3] = target: T3, cloned human GRP-preferring receptor (BB2) (Homo sapiens, UniProt P30550); experiment: Receptor binding assay, cloned human GRP-preferring receptor (BB2), [125I][Tyr4]bombesin displacement; conditions: CHO-K1 cell membranes, 90 minutes incubation
# T3 construct: expressed in transfected cells
# T3 sequence (P30550 whole entry): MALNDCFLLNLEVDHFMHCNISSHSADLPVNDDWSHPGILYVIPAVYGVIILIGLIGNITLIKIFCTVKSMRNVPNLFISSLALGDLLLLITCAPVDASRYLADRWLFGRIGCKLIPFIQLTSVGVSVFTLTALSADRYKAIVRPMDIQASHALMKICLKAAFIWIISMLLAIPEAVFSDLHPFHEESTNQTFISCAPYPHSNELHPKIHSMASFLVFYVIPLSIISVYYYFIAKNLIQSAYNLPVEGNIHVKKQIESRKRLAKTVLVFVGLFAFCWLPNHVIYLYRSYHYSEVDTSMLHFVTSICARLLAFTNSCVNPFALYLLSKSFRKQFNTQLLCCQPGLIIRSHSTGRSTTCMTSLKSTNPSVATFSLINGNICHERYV
# Protocol: as §1, with “The compounds of the invention have been evaluated in receptor binding assays which measure the affinity of the novel compounds in a cloned human NMB-preferring receptor (BB1) assay and in a cloned human GRP-preferring receptor (BB2) assay. Protocol for Binding Assays […] For” for “For”
# [4] = target: T2, cloned human NMB-preferring receptors expressed in CHO cells; experiment: Measurement of intracellular calcium levels ([Ca2+]i mobilization, Fura-2) in CHO cells; format: cell-based; conditions: NMB-preferring receptor (BB1), read-out: [Ca2+]i Mobilization KE
# Protocol: as §2, §3
# 1. Measurement of intracellular calcium levels
# Culture of Chinese hamster ovary cells
# Chinese hamster ovary cells were routinely grown as monolayers in Ham's F12 nutrient mixture supplemented with 10% FBS and […], and maintained at 37° C. under 5% CO2. Cells were passaged every 3 to 4 days. At each passaging, cells were seeded at a density of 3 to 6 million per 175 cm^2 flask. […]
# Plated cells were incubated with 2 μM Fura-2-AM for between 45 and 120 minutes at 25° C. to 29° C. […] Single coverslips were then mounted in a chamber on top of an inverted fluorescence microscope and perfused with a Krebs-Hepes assay buffer (composition in mM: NaCl 118, KCl 4.7, MgSO4 1.2, CaCl^2 1.2, KH^2 PO^4 1.2, Hepes 10, glucose 11, pH 7.2 at 37° C.) {332}.
# Measurements of [Ca^2+ ]^i in individual cells were made from the fluorescence ratio (excitations […] for Fura-2) using a specially designed filter wheel assembly, CCD camera or photomuliplier tubes, and specially designed suites of software (MAGICAL OR phocal, Applied Imaging, Sunderland, UK) which samples emission following excitation at different wavelengths at regular intervals. […]
# T1 sequence (P28336 whole entry): as the sequence (P28336 whole entry) above
Structure (SMILES),Ki [1] [nM],Acidification Response appKB [2],Ki [3] [nM],Kb [4] [nM]
"CC(C)c1cccc(C(C)C)c1NC(=O)N[C@@](C)(Cc1c[nH]c2ccccc12)C(=O)NCC1(c2ccccn2)CCCCC1 [Example 1, 2-[3-(2,6-Diisopropyl-phenyl)-ureido]-3-(1H-indol-3-yl)-2-methyl-N-(1-pyridin-2-yl-cyclohexylmethyl)-propionamide]",5,7.6,> 10000,18
C[C@@](Cc1c[nH]c2ccccc12)(NC(=O)Nc1ccc([N+](=O)[O-])cc1)C(=O)NCC1(c2ccccn2)CCCCC1 [Example 14],0.15,1.0,19,1.2
